Measurements taken from patent publication US4620871A (priority 1980, dated 1986).

Key:
Bean [1] = experiment: Inhibition of the decomposition of chlorophyll in bean leaf segments; conditions: 4 days dark
Method: (§1) The active agent to be tested was dissolved in distilled water to form a 200 ppm solution, and leaf segments of the plants under examination, weighing 200 mg, were floated on the surface of the solution for 4 days in the dark. Thereafter chlorphyll was extracted from the leaf segments with methanol.
(§2) To determine the starting state, chlorophyll was extracted with methanol from untreated leaf segments weighing 200 mg. In the control test the leaf segments, weighing 200 mg, were floated on the surface of distilled water for 4 days in the dark, and then chlorophyll was extracted from the leaf segments with methanol.
(§3) The chlorophyll concentration was determined by measuring the extinction of the extracts at 665 mμ.

soybean leaf segments = experiment: Stimulation of the protein level of soybean, glycine-14C incorporation (Example 18); conditions: 24 hours
Method: The active agent to be tested was dissolved in distilled water to form a 200 ppm solution, and soybean leaf segments, weighing 200 mg, were floated on the surface of the solution for 24 hours. In the control test leaf segments, weighing 200 mg, were floated on the surface of distilled water.
The leaf segments were washed with distilled water, and then treated for 3 hours with 20 ml of a solution containing labelled amino acid (glycine-^14 C; activity: 2 μCi). After this exposition period the leaf segments were washed with an aboundant amount of water, and the protein content of the leaf segments was isolated in a manner known per se. Stock solution was prepared from the isolated protein, and the specific radioactivity of the solution was determined by liquid scintillation.

Soybean [2] = experiment: Inhibition of the decomposition of chlorophyll in soybean leaf segments; conditions: 4 days dark
Method: as §1, §2, §3

Soybean [3] = experiment: Total and protein nitrogen content of soybean (Example 39); type: in vivo
Description: The effects of 1,4-dihydroxyphthalazine and salts thereof exerted on the total nitrogen content and protein nitrogen content of soybean were examined as described in Example 27. The plants were sprayed with the compositions according to the invention at the beginning of the flowering of the apical cluster.

Maize = experiment: Inhibition of the decomposition of chlorophyll in maize; conditions: for Chlorophyll content: 100 mg green plant, control 0.65; for activation at 200 ppm: Zea mays, 96 h, read-out: Promotion
Method: as §2, with “Thereafter chlorphyll was extracted from the leaf segments with methanol. To” for “To”, “methanol. […] For alfalfa and maize the chlorphyll contents of 100 mg of green plant were examined.” for “methanol.”

Alfalfa [4] = experiment: Inhibition of the decomposition of chlorophyll in alfalfa; conditions: for Chlorophyll content: 200 ppm, 100 mg green plant, control 0.78; for activation at 200 ppm: Medicago sativa, 96 h, read-out: Promotion
Method: as §2, with “Thereafter chlorphyll was extracted from the leaf segments with methanol. To” for “To”, “methanol. […] For alfalfa and maize the chlorphyll contents of 100 mg of green plant were examined.” for “methanol.”

Bean [5] = experiment: Stimulation of photosynthesis, 14CO2 incorporation, bean leaf discs (Example 20); conditions: 2 hours; for activation at 200 ppm: foliar
Method: The specific radioactivities of the stock solutions were determined by liquid scintillation. In the control test untreated leaf discs were exposed to labelled carbon, dioxide, and the amount of carbon dioxide incorporated under such conditions was regarded as standard.

maize leaves = experiment: Fixation of 14CO2 in maize leaves (Example 36); conditions: 18 hours; for Fixation of 14CO2: fresh weight, control 5.72; for Fixation of 14CO2, %: increase over control
Method: (§4) The biological activities of cytokinin-like factors can be well characterized by measuring the intensity of the photosynthetic carbon dioxide fixation and the incorporation of labelled amino acids into the TCA-insoluble protein fraction. The intensity of photosynthetic carbon dioxide fixation was determined on maize leaves, utilizing ^14 CO2, whereas the incorporation of amino acids was examined on bean leaves, utilizing […]-^14 C.

bean leaves = experiment: Incorporation of Gly-2-14C in bean leaves (Example 36); conditions: 18 hours; for Incorporation of Gly-2-14C: fresh weight, control 3.52; for Incorporation of Gly-2-14C, %: increase over control
Method: as §4

maize for silage = experiment: Maize for silage field tests 1979, Boly (Example 28); type: in vivo
Description: The effects of the cytokinin-like regulators on the crop yield, crude protein content and real protein content of maize for silage, observed under field conditions in the tests performed in 1979 at the Agricultural Combinate of Boly, Hungary, are listed in Table 20.

Alfalfa [6] = experiment: Alfalfa field tests 1979, Boly (Example 26); type: in vivo
Description: The effects of the compositions according to the invention exerted on the crop yield (green yield), crude protein content, protein nitrogen content and C/N ratio of alfalfa, observed under field conditions in the tests performed in 1979 at the Agricultural Combinate of Boly, Hungary, are listed in Table 17.

hybrid maize = experiment: Grain yield of maize (Example 29); type: in vivo
Method: The compositions according to the invention were applied as seed dressing agents onto the sowing-seeds of hybrid maize in a dosis of 0.5 kg/ha. The powdery compositions were wetted with water prior to application. The stand was sprayed three times during the cultivation period: first at the four-leaves development stage with a dosis of 3 kg/ha, then prior to tasseling with a dosis of 1 kg/ha, and finally prior to pollen ripening with a dosis of 2 kg/ha. The crop was evaluated as May shelled corn.

**Q.** What does the source list for `Oc1nnc(O)c2ccccc12` [1,4-Dihydroxyphthalazine]?
**A.** Chlorophyll (Bean [1]; 200 ppm, control 4.2): 5.8 mg; activation at 200 ppm (Bean [1]; foliar, 96 h, read-out: Promotion): 38%; Radioactivity (soybean leaf segments; 200 ppm, control 11.9): 16.1 mu Ci/100 mg; activation at 200 ppm (soybean leaf segments; Glycine max): 35.3%; Chlorophyll (Soybean [2]; 200 ppm, control 3.5): 4.2 mg; activation at 200 ppm (Soybean [2]; Glycine max, foliar, 96 h, read-out: Promotion): 20%; Protein nitrogen content (Soybean [3]; control 1.9): 3.8 % of dry substance; Total nitrogen content (Soybean [3]; control 2.6): 4.6 % of dry substance; Protein nitrogen content, increase (Soybean [3]; in vivo): 100.0%; Total nitrogen content, increase (Soybean [3]; in vivo): 77.0%

**Q.** What does the source list for `Cn1cnc2ccccc21` [N--methyl-benzimidazolium bromide]?
**A.** Chlorophyll content (Maize; 200 ppm): 0.80 mg; activation at 200 ppm (Maize): 23%; Chlorophyll content (Alfalfa [4]): 0.83 mg; activation at 200 ppm (Alfalfa [4]): 6.4%; activation at 200 ppm (Bean [5]): 125%; Fixation of 14CO2 (maize leaves): 8.12 μCi/g; Fixation of 14CO2, % (maize leaves): 42%; Incorporation of Gly-2-14C (bean leaves): 4.75 μCi/g; Incorporation of Gly-2-14C, % (bean leaves): 35%

**Q.** How did the Promotion (Maize; 200 ppm) turn out when N--bromoethyl-benzimidazolium bromide was run?
**A.** 9.2%

**Q.** What about the Chlorophyll content (Maize; 200 ppm) of the same compound?
**A.** 0.71 mg

**Q.** And the Chlorophyll content (Alfalfa [4])?
**A.** 0.64 mg

**Q.** And the “Stimulation (14CO2 incorporation)” value (Bean [5]; 200 ppm)?
**A.** 57%

**Q.** What about the “Fixation of 14CO2” value (maize leaves) of the same compound?
**A.** 6.46 μCi/g

**Q.** What about the “Fixation of 14CO2, %” value (maize leaves) of the same compound?
**A.** 13%

**Q.** And the “Incorporation of Gly-2-14C” value (bean leaves)?
**A.** 4.36 μCi/g

**Q.** What about the “Incorporation of Gly-2-14C, %” value (bean leaves) of the same compound?
**A.** 24%

**Q.** For `CC(C)[n+]1c[nH]c2ccccc21.[Cl-]` [N--Isopropyl-benzimidazolium chloride, N-isopropyl-benzimidazolium chloride], which P2O5 content (maize for silage; control 7.5) is on record?
**A.** 9.8 % of dry substance

**Q.** What about the Crude protein content (maize for silage; control 13.2) of the same compound?
**A.** 17.1 % of dry substance

**Q.** And the C/N ratio (maize for silage; control 31.4)?
**A.** 23.5

**Q.** And the Green weight (maize for silage; control 310.2)?
**A.** 398.2 q/ha

**Q.** And the “C/N ratio, decrease” value (maize for silage; in vivo)?
**A.** 25.4%

**Q.** And the “Crude protein content, increase” value (maize for silage; in vivo)?
**A.** 29.7%

**Q.** What about the “Green weight, increase” value (maize for silage; in vivo) of the same compound?
**A.** 28.4%

**Q.** What about the “P2O5 content, increase” value (maize for silage; in vivo) of the same compound?
**A.** 30.8%

**Q.** And the C/N ratio (Alfalfa [6]; control 5.31)?
**A.** 4.20

**Q.** What about the P2O5 content (Alfalfa [6]; control 8.3) of the same compound?
**A.** 10.9 % of dry substance

**Q.** What about the Crude protein content (Alfalfa [6]; control 21.3) of the same compound?
**A.** 25.8 % of dry substance

**Q.** And the Green yield (Alfalfa [6]; control 120)?
**A.** 142 q/ha

**Q.** And the “C/N ratio, decrease” value (Alfalfa [6]; in vivo)?
**A.** 21.0%

**Q.** And the “Crude protein content, increase” value (Alfalfa [6]; in vivo)?
**A.** 21.5%

**Q.** What about the “Green yield, increase” value (Alfalfa [6]; in vivo) of the same compound?
**A.** 18.7%

**Q.** And the “P2O5 content, increase” value (Alfalfa [6]; in vivo)?
**A.** 31.7%

**Q.** And the “Fixation of 14CO2” value (maize leaves)?
**A.** 10.92 μCi/g

**Q.** What about the “Fixation of 14CO2, %” value (maize leaves) of the same compound?
**A.** 92%

**Q.** What about the “Incorporation of Gly-2-14C” value (bean leaves) of the same compound?
**A.** 4.85 μCi/g

**Q.** And the “Incorporation of Gly-2-14C, %” value (bean leaves)?
**A.** 35%

**Q.** And the “Grain yield, increase” value (hybrid maize; in vivo)?
**A.** 57.1%

**Q.** What about the Grain yield (hybrid maize; seed dressing 0.5 kg/ha + sprays 3, 1, 2 kg/ha, control 132.8) of the same compound?
**A.** 208.5 q/ha

**Q.** What does the source list for `CCn1cnc2ccccc21` [N--ethyl-benzimidazolium bromide]?
**A.** Chlorophyll content (Maize; 200 ppm): 0.79 mg; activation at 200 ppm (Maize): 21.5%; Chlorophyll content (Alfalfa [4]): 0.85 mg; activation at 200 ppm (Alfalfa [4]): 8.9%; activation at 200 ppm (Bean [5]): 184%; Fixation of 14CO2 (maize leaves): 6.72 μCi/g; Fixation of 14CO2, % (maize leaves): 18%; Incorporation of Gly-2-14C (bean leaves): 4.25 μCi/g; Incorporation of Gly-2-14C, % (bean leaves): 21%
